Measurements: patent publication US9029544B2, “Tricyclic pyridine derivatives, medicaments containing such compounds, their use and process for their preparation” (Boehringer Ingelheim International GmbH, priority 2010, dated 2015)

biological target: T1, Recombinant human CETP (Homo sapiens, UniProt P11597); assay: CETP in vitro assay (fluorometric assay, Roar Biomedical; cholesterol ester transfer from HDL to LDL); type: biochemical; conditions: recombinant human CETP from CHO cells; 3 hours at 37° C.; fluorescence 485/535 nm; compound concentrations between 1 nM and 30 μM; read-out: IC50 values for inhibition of CETP
T1 construct: made in house; host or cells: CHO cells (secreted into conditioned medium)
T1 sequence (P11597 18-493): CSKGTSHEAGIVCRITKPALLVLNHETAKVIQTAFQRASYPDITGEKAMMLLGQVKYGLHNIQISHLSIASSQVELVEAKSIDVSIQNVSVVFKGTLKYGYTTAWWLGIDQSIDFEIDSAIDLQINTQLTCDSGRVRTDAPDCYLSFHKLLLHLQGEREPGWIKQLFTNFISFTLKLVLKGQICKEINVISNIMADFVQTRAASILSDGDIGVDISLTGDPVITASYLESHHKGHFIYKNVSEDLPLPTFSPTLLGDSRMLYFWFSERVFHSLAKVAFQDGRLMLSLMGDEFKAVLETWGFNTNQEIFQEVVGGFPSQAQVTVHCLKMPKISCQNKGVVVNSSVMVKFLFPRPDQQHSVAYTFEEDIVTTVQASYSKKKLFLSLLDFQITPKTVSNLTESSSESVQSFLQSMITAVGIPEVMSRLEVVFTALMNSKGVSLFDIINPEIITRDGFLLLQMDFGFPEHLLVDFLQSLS
Protocol: CETP inhibitory activity of compounds of the present invention can be determined in a fluorometric assay purchased from Roar Biomedical, Inc. (New York, N.Y., USA). […] Recombinant human CETP was partially purified from medium conditioned by CETP expressing CHO cells. In a 384 well format 2.5 μl of compound solution in DMSO was combined with 2 μl of donor solution, 2 μl of acceptor solution and 0.8 μl of recombinant human CETP solution in a total volume of 100 μl with assay buffer and incubated for 3 hours at 37° C. The fluorescence intensity was measured at excitation wavelength of 485 nm and emission wavelength of 535 nm. IC50 values are calculated from dose effect curves from compound concentrations between 1 nM and 30 μM.

Structure (SMILES)	IC50 [nM]
CC(C)c1nc2c(c3c1[C@H](c1ccc(C(F)(F)F)cn1)OC31CCC(F)(F)CC1)[C@@H](O)CC(C)(C)C2 (single isomer, unassigned) [7 (Diastereomer 2), (3′R,9′S)-4,4-difluoro-4′-isopropyl-7′,7′-dimethyl-3′-(5-(trifluoromethyl)pyridin-2-yl)-6′,7′,8′,9′-tetrahydro-3′H-spiro[cyclohexane-1,1′-furo[3,4-c]quinolin]-9′-ol]	1150
CC(C)c1nc2c(c3c1[C@@H](c1ccc(C(C)(C)C)cc1)OC31CCCC1)[C@@H](O)CC1(CCC1)C2 [1(62), (3′R,9′S)-3′-(4-tert-butylphenyl)-4′-isopropyl-7′,7′-(propan-1,3-diyl)-6′,7′,8′,9′-tetrahydro-3′H-spiro[cyclopentane-1,1′-furo[3,4-c]quinolin]-9′-ol]	21
N#Cc1cc([C@H]2OC3(CCOCC3)c3c2c(C2CCOCC2)nc2c3[C@@H](O)CC3(CCC3)[C@H]2O)ccc1C(F)(F)F [4(14), 5-((3R,6R,9S)-6,9-dihydroxy-7,7-(propan-1,3-diyl)-4-(tetrahydro-2H-pyran-4-yl)-2′,3′,5′,6,6′,7,8,9-octahydro-3H-spiro[furo[3,4-c]quinoline-1,4′-pyran]-3-yl)-2-(trifluoromethyl)benzonitrile]	65
CC(C)c1nc2c(c3c1[C@@H](c1ccc(C(F)(F)F)cc1F)OC31CCOCC1)[C@@H](O)CC(C)(C)C2 [1(55), (3S,9S)-3-(2-fluoro-4-(trifluoromethyl)phenyl)-4-isopropyl-7,7-dimethyl-2′,3′,5′,6,6′,7,8,9-octahydro-3H-spiro[furo[3,4-c]quinoline-1,4′-pyran]-9-ol]	26
CC(C)c1nc2c(c3c1[C@@H](c1ccc(C(F)(F)F)cc1)OC31CCOCC1)[C@@H](O)CC1(CCC1)[C@H]2O [5(1), (3R,6R,9S)-4-isopropyl-7,7-(propan-1,3-diyl)-3-(4-(trifluoromethyl)phenyl)-2′,3′,5′,6,6′,7,8,9-octahydro-3H-spiro[furo[3,4-c]quinoline-1,4′-pyran]-6,9-diol]	78
CC(C)c1nc2c(c3c1[C@@H](c1ccc(C(F)(F)F)nc1)OC31CCOCC1)[C@@H](O)CC1(CCC1)C2 [1(52), (3R,9S)-4-isopropyl-7,7-(propan-1,3-diyl)-3-(6-(trifluoromethyl)pyridin-3-yl)-2′,3′,5′,6,6′,7,8,9-octahydro-3H-spiro[furo[3,4-c]quinoline-1,4′-pyran]-9-ol]	54
CC(C)c1nc2c(c3c1[C@@H](c1ncc(C(F)(F)F)cc1F)OC31CCOCC1)[C@@H](O)CC(C)(C)C2 [5(2), (3S,9S)-3-(3-fluoro-5-(trifluoromethyl)pyridin-2-yl)-4-isopropyl-7,7-dimethyl-2′,3′,5′,6,6′,7,8,9-octahydro-3H-spiro[furo[3,4-c]quinoline-1,4′-pyran]-9-ol]	206
CC(C)c1nc2c(c3c1[C@@H](c1ccc(C(F)(F)F)nc1)OC31CCOCC1)[C@@H](O)CC(C)(C)[C@@H]2O [5(7), (3R,6S,9S)-4-isopropyl-7,7-dimethyl-3-(6-(trifluoromethyl)pyridin-3-yl)-2′,3′,5′,6,6′,7,8,9-octahydro-3H-spiro[furo[3,4-c]quinoline-1,4′-pyran]-6,9-diol]	4120
CC(C)c1nc2c(c3c1[C@@H](c1ccc(C(C)(C)C)cc1)OC31CCCC1)[C@@H](O)CC(C)(C)[C@H]2O [4(3), (3′R,6′R,9′S)-3′-(4-tert-butylphenyl)-4′-isopropyl-7′,7′-dimethyl-6′,7′,8′,9′-tetrahydro-3′H-spiro[cyclopentane-1,1′-furo[3,4-c]quinoline]-6′,9′-diol]	21
CC(C)c1nc2c(c3c1[C@@H](c1ccc(C(F)(F)F)c(C#N)c1)OC31CCOCC1)[C@@H](O)CC(C)(C)C2 [1(66), 5-((3R,9S)-9-hydroxy-4-isopropyl-7,7-dimethyl-2′,3′,5′,6,6′,7,8,9-octahydro-3H-spiro[furo[3,4-c]quinoline-1,4′-pyran]-3-yl)-2-(trifluoromethyl)benzonitrile]	34

The remaining compounds from weak to strong by IC50, led by results:

IC50 [nM]	Structure (SMILES)
2700	CC(C)c1nc2c(c3c1[C@@H](c1ccc(C(F)(F)F)cn1)OC31CCOCC1)[C@@H](O)CC(C)(C)[C@@H]2O [5(3), (3S,6S,9S)-4-isopropyl-7,7-dimethyl-3-(5-(trifluoromethyl)pyridin-2-yl)-2′,3′,5′,6,6′,7,8,9-octahydro-3H-spiro[furo[3,4-c]quinoline-1,4′-pyran]-6,9-diol]
886	CC1(C)Cc2nc(C3CCOCC3)c3c(c2[C@@H](O)C1)C1(CCOCC1)O[C@@H]3c1ccc(C(F)(F)F)nc1 [1(76), (3R,9S)-7,7-dimethyl-4-(tetrahydro-2H-pyran-4-yl)-3-(6-(trifluoromethyl)pyridin-3-yl)-2′,3′,5′,6,6′,7,8,9-octahydro-3H-spiro[furo[3,4-c]quinoline-1,4′-pyran]-9-ol]
362	O[C@H]1CC2(CCC2)Cc2nc(C3CCOCC3)c3c(c21)C1(CCOCC1)O[C@@H]3c1ccc(C(F)(F)F)nc1 [1(78), (3R,9S)-7,7-(propan-1,3-diyl)-4-(tetrahydro-2H-pyran-4-yl)-3-(6-(trifluoromethyl)pyridin-3-yl)-2′,3′,5′,6,6′,7,8,9-octahydro-3H-spiro[furo[3,4-c]quinoline-1,4′-pyran]-9-ol]
207	CC(C)c1nc2c(c3c1[C@@H](c1ccc(C(C)(C)C)cc1)OC31CCCC1)[C@@H](O)CC(C)(C)[C@@H]2O [4(4), (3′R,6′S,9′S)-3′-(4-tert-butylphenyl)-4′-isopropyl-7′,7′-dimethyl-6′,7′,8′,9′-tetrahydro-3′H-spiro[cyclopentane-1,1′-furo[3,4-c]quinoline]-6′,9′-diol]
193	CC(C)c1nc2c(c3c1[C@@H](c1ccc(C(F)(F)F)cn1)OC31CCC(F)(F)CC1)[C@@H](O)CC(C)(C)C2 (single isomer, unassigned) [7 (Diastereomer 1), (3′S,9′S)-4,4-difluoro-4′-isopropyl-7′,7′-dimethyl-3′-(5-(trifluoromethyl)pyridin-2-yl)-6′,7′,8′,9′-tetrahydro-3′H-spiro[cyclohexane-1,1′-furo[3,4-c]quinolin]-9′-ol]
66	CC1(C)Cc2nc(C3CCOCC3)c3c(c2[C@@H](O)C1)C1(CCOCC1)O[C@@H]3c1ccc(S(F)(F)(F)(F)F)cc1 [1(61), (3R,9S)-7,7-dimethyl-4-(tetrahydro-2H-pyran-4-yl)-3-(4-(pentafluorosulfanyl)phenyl)-2′,3′,5′,6,6′,7,8,9-octahydro-3H-spiro[furo[3,4-c]quinoline-1,4′-pyran]-9-ol]
44	C=C(C)c1ccc([C@H]2OC3(CCCC3)c3c2c(C(C)C)nc2c3[C@@H](O)CC(C)(C)C2)cc1 [1(60), (3′R,9′S)-4′-isopropyl-7′,7′-dimethyl-3′-(4-(prop-1-en-2-yl)phenyl)-6′,7′,8′,9′-tetrahydro-3′H-spiro[cyclopentane-1,1′-furo[3,4-c]quinolin]-9′-ol]
44	O[C@H]1CC2(CCC2)[C@@H](O)c2nc(C3CCOCC3)c3c(c21)C1(CCOCC1)O[C@@H]3c1ccc(C(F)(F)F)cc1 [4(16), (3R,6R,9S)-7,7-(propan-1,3-diyl)-4-(tetrahydro-2H-pyran-4-yl)-3-(4-(trifluoromethyl)phenyl)-2′,3′,5′,6,6′,7,8,9-octahydro-3H-spiro[furo[3,4-c]quinoline-1,4′-pyran]-6,9-diol]
39	O[C@H]1CC2(CCC2)Cc2nc(C3CCOCC3)c3c(c21)C1(CCOCC1)O[C@@H]3c1ccc(C(F)(F)F)cc1 [1(77), (3R,9S)-7,7-(propan-1,3-diyl)-4-(tetrahydro-2H-pyran-4-yl)-3-(4-(trifluoromethyl)phenyl)-2′,3′,5′,6,6′,7,8,9-octahydro-3H-spiro[furo[3,4-c]quinoline-1,4′-pyran]-9-ol]
39	N#Cc1cc([C@H]2OC3(CCOCC3)c3c2c(C2CCOCC2)nc2c3[C@@H](O)CC3(CCC3)C2)ccc1C(F)(F)F [1(72), 5-((3R,9S)-9-hydroxy-7,7-(propan-1,3-diyl)-4-(tetrahydro-2H-pyran-4-yl)-2′,3′,5′,6,6′,7,8,9-octahydro-3H-spiro[furo[3,4-c]quinoline-1,4′-pyran]-3-yl)-2-(trifluoromethyl)benzonitrile]
27	CC(C)c1nc2c(c3c1[C@@H](c1ccc(C(F)(F)F)c(C#N)c1)OC31CCOCC1)[C@@H](O)CC(C)(C)[C@H]2O [4(15), 5-((3R,6R,9S)-6,9-dihydroxy-4-isopropyl-7,7-dimethyl-2′,3′,5′,6,6′,7,8,9-octahydro-3H-spiro[furo[3,4-c]quinoline-1,4′-pyran]-3-yl)-2-(trifluoromethyl)benzonitrile]
13	CC(C)c1nc2c(c3c1[C@@H](c1ccc(C(F)(F)F)c(F)c1)OC31CCOCC1)[C@@H](O)CC(C)(C)[C@H]2O [5(6), (3R,6R,9S)-3-(3-fluoro-4-(trifluoromethyl)phenyl)-4-isopropyl-7,7-dimethyl-2′,3′,5′,6,6′,7,8,9-octahydro-3H-spiro[furo[3,4-c]quinoline-1,4′-pyran]-6,9-diol]
